Assay results: US11040026B2, “Muscarinic M1 receptor positive allosteric modulators” (SUVEN LIFE SCIENCES LIMITED, priority 2016, dated 2021)

What was measured:
muscarinic M1 receptor = molecular target: T1, muscarinic M1 receptor (Homo sapiens, UniProt P11229); experiment: Allosteric potency EC50 for muscarinic M1 receptor (CHO pCRE-Luc reporter assay); type: cell-based; conditions: in presence of EC20 of acetylcholine; CHO cells, luciferase reporter, 4 hours
T1 sequence (P11229 1-460): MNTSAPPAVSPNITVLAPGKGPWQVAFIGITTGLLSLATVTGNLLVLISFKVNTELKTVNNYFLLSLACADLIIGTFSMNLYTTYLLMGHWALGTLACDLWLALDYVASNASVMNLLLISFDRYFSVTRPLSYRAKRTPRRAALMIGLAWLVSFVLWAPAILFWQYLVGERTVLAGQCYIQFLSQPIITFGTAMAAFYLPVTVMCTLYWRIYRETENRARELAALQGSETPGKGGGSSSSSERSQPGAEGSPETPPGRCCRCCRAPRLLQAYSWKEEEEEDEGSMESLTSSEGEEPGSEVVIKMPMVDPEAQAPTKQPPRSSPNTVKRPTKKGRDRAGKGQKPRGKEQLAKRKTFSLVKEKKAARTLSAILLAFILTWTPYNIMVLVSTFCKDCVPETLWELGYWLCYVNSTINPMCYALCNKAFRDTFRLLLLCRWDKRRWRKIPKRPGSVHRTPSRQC
In short: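 Stable CHO line with recombinant human M1 and cAMP-response-element luciferase reporter, serum-starved overnight. Test compounds at increasing concentrations added with an EC20 of acetylcholine, 4 h at 37 °C; luminescence read after lysis. EC50 = concentration giving 50% stimulation of luciferase activity in the presence of EC20 acetylcholine.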

[1] = Rodent pharmacokinetic study; type: in vivo, Male Wistar rats; conditions: rat
Protocol: Rodent Pharmacokinetic Study
Male Wistar rats (260±50 grams) were used as experimental animals. Animals were housed individually in polypropylene cage. Two days prior to study, male Wistar rats were anesthetized with isoflurane for surgical placement of jugular vein catheter. Rats were randomly divided for oral (3 mg/kg) and intravenous (1 mg/kg) dosing (n=3/group) and fasted overnight before oral dosing (p.o.). However, rats allocated to intravenous dosing food and water was provided ad libitum.
At pre-determined point, blood was collected through jugular vein and replenished with an equivalent volume of normal saline. Collected blood was transferred into a labeled eppendorf tube containing 10 μL of heparin as an anticoagulant. Typically blood samples were collected at following time points: 0.08, 0.25, 0.5, 1, 2, 4, 6, 8, and 24 hours post dose. Blood was centrifuged at 4000 rpm for 10 minutes. Plasma was separated and stored frozen at −80° C. until analysis. The concentrations of the test compounds were quantified in plasma by qualified LC-MS/MS method using suitable extraction technique. The test compounds were quantified in the calibration range around 1-1000 ng/mL in plasma. Study samples were analyzed using calibration samples in the batch and quality control samples spread across the batch.
Pharmacokinetic parameters Cmax, AUCt, T1/2, Clearance and Bioavailability (F) were calculated by non-compartmental model using standard non-compartmental model by using Phoenix WinNonlin 6.0.4 version Software package.

[2] = Rodent brain penetration study; type: in vivo, Male Wistar rats; conditions: male, Wistar, brain and plasma, po; rat, 3 mg/kg, p.o., brain-plasma ratio; read-out: Single dose Rat Brain Penetration (Cb/Cp) at 3 mg/kg, p.o.
Protocol: Rodent Brain Penetration Study
Male Wistar rats (260±40 grams) were used as experimental animals. Three animals were housed in each cage. Animals were given water and food ad libitum throughout the experiment and maintained on a 12 hours light/dark cycle.
Brain penetration was determined in discrete manner in rats. One day prior to dosing day, male Wistar rats were acclimatized and randomly grouped according to their weight. At each time point (0.50, 1 and 2 hours) n=3 animals were used.
The test compounds were suitably preformulated and administered orally at (free base equivalent) 3 mg/kg. Blood samples were removed via cardiac puncture by using isoflurane anesthesia. The animals were sacrificed to collect brain tissue. Plasma was separated and brain samples were homogenized and stored frozen at −20° C. until analysis. The concentrations of the test compounds in plasma and brain were determined using LC-MS/MS method.
The test compounds were quantified in plasma and brain homogenate by qualified LC-MS/MS method using suitable extraction technique. The test compounds were quantified in the calibration range of 1-500 ng/mL in plasma and brain homogenate. Study samples were analyzed using calibration samples in the batch and quality control samples spread across the batch. Extent of brain-plasma ratio (Cb/Cp) was calculated

Male Wistar rats [3] = experiment: Object recognition task model; type: in vivo; conditions: rat, 3 mg/kg, p.o.
Protocol: Object Recognition Task Model
(§1) Male Wistar rats (8-10 weeks old) were used as experimental animals. Four animals were housed in each cage. Animals were kept on 20% food deprivation from a day prior to experimentation. Water was provided ad libitum throughout the experiment. Animals were maintained on a 12 hours light/dark cycle in temperature and humidity controlled room. The experiment was carried out in an circular or square arena made up of acrylic. Rats were habituated to individual arenas for up to 1 hour in the absence of any objects on day 1.
One group of 12 rats received vehicle and another set of animals received test compounds, before familiar (T1) and choice (T2) trials. During the familiarization phase, (T1), the rats were placed individually in the arena for 3 minutes, in which two identical objects (a1 and a2) were positioned 10 cm from the wall. 24 hours after T1, trial for long-term memory test was performed. The same rats were placed in the same arena as they were placed in T1 trial. During the choice phase (T2) rats were allowed to explore the arena for 3 minutes in presence of a copy of familiar object (a3) and one novel object (b). During the T1 and T2 trial, explorations of each object (defined as sniffing, licking, chewing or having moving vibrissae whilst directing the nose towards the object at a distance of less than 1 cm) were recorded using stopwatch.
T1 is the total time spent exploring the familiar objects (a1+a2).
T2 is the total time spent exploring the familiar object and novel object (a3+b).
The object recognition test was performed as described in Behav. Brain Res., 1988, 31, 47-59.

Male Wistar rats [4] = experiment: Object recognition task model (combination study); type: in vivo; conditions: rat, combination (co-treatment) with donepezil; FIG. 1
Protocol: Object Recognition Task Model (Combination Study)
The cognition enhancing properties of compounds of this invention were estimated by using this model.
as §1, with “open field” for “circular or square arena”, “arenas (open field)” for “arenas”, “20 minutes” for “up to 1 hour”
One group of 12 rats received vehicle and another set of animals received compound of the formula (I) or Donepezil or compound of formula (I) and Donepezil, before the familiar (T1) and choice (T2) trials. During the familiarization phase, (T1), the rats were placed individually in the arena for 3 minutes, in which two identical objects (a1 and a2) were positioned 10 cm from the wall. 24 hours after T1, trial for long-term memory test was performed. […] During the T1 and T2 trial, explorations of each object (defined as sniffing, licking, chewing or having moving vibrissae whilst directing the nose towards the object at a distance of less than 1 cm) were recorded using stopwatch. […]

[5] = male, Wistar, plasma, intravenous (bolus), 1 mg/kg
[6] = male, Wistar, plasma, oral (gavage), 3 mg/kg

Cn1ccc2c(Cc3ccnc(F)c3)cc(C(=O)N[C@H]3CCCC[C@@H]3O)nc21 [Example 1, N-[(1S,2S)-2-Hydroxycyclohexyl]-4-(2-fluoropyridin-4-ylmethyl)-1-methyl-1H-pyrrolo[2,3-b]pyridine-6-carboxamide]
EC50 (muscarinic M1 receptor): 1.48 µM
AUC(0-t) [1, 5]: 796 ± 41 ng·h/mL
clearance [1, 5]: 34 ± 3 mL/min/kg
half-life [1, 5]: 1.3 ± 0.3 h
AUC(0-t) [1, 6]: 875 ± 215 ng·h/mL
Cmax [1, 6]: 373 ± 53 ng/mL
half-life [1, 6]: 1.3 ± 0.2 h
F ([1]; oral (gavage) 3 mg/kg vs intravenous 1 mg/kg): 59 ± 14%
Kp [2]: 0.33 ± 0.02
Inference (Male Wistar rats [3]): Active
Exploration time mean ± S.E.M, Familiar object (Male Wistar rats [3]; choice trial 24 hours after T1): 12.67 ± 0.95 s
Exploration time mean ± S.E.M, Novel object (Male Wistar rats [3]; choice trial 24 hours after T1): 17.98 ± 1.77 s
Procognitive effect in object recognition task (Male Wistar rats [4]): Procognitive effects were observed
